Assay results: patent publication US7057052B2, “Heterocyclic quinones as pharmaceutical agents” (Duke University, priority 2002, dated 2006)
Like-named read-outs stand apart in the source and are kept apart here.

Experiments:
Assay type in all cases: biochemical
Cdc25A = target: T1, Cdc25A (Homo sapiens, UniProt P30304); assay: Cdc25A phosphatase inhibition screen at 50 μM; details: read-out: Percent Inhibition at 50 uM compound, Cdc25 A
T1 sequence (P30304 1-524): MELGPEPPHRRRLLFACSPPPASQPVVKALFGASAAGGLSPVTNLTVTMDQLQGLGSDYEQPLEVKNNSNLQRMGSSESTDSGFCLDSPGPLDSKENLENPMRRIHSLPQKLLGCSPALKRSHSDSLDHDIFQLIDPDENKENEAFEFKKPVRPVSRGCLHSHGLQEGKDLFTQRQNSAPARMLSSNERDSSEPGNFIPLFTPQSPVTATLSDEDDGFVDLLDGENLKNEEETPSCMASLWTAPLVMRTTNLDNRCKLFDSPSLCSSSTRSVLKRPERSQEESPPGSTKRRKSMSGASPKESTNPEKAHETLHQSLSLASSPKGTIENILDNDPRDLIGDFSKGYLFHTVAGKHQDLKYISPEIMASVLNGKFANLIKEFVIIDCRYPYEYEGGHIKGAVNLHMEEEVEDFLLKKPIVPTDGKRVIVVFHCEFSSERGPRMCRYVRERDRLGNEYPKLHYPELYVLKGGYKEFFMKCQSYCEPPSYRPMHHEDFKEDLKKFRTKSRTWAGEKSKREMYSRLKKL
Description: (§1) Using procedures known to those skilled in the art, the compounds listed in Table 3 were screened against Cdc25A, Cdc25B, and Cdc25C at 50 μM. […] To analyze these effects further, the compounds were then screened against Cdc25B in a 3 pt. IC-50, using 1, 7 and 50 μM. Several of the compounds were also screened with an 8 pt. IC-50 process, using 0.1–10 μM, allowing determination of Hill slopes.

Cdc25B = target: T2, Cdc25B (Homo sapiens, UniProt P30305); assay: Cdc25B phosphatase inhibition (50 μM screen, 3 pt. and 8 pt. IC-50); details: for IC50: Cdc25B; for inhibition at 50 µM: read-out: Percent Inhibition at 50 uM compound, Cdc25 B
T2 sequence (P30305 1-580): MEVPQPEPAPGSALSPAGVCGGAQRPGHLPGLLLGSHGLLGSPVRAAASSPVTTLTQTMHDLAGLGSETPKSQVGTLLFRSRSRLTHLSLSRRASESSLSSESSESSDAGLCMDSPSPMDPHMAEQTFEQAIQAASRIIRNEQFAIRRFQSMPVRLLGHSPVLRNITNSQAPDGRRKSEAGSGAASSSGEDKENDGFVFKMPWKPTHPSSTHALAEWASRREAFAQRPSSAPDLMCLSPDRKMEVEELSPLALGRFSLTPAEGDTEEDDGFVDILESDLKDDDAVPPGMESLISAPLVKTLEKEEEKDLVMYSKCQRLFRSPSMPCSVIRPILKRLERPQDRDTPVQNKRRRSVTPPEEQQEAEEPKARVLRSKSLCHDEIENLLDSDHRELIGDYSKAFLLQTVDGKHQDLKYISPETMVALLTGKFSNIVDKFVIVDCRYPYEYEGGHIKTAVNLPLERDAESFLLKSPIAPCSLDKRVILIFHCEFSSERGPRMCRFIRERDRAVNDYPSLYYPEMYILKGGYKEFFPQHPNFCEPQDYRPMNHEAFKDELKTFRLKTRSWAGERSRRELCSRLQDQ
Description: as §1

Cdc25C = target: T3, Cdc25C (Homo sapiens, UniProt P30307); assay: Cdc25C phosphatase inhibition screen at 50 μM; details: read-out: Percent Inhibition at 50 uM compound, Cdc25 C
T3 sequence (P30307 1-473): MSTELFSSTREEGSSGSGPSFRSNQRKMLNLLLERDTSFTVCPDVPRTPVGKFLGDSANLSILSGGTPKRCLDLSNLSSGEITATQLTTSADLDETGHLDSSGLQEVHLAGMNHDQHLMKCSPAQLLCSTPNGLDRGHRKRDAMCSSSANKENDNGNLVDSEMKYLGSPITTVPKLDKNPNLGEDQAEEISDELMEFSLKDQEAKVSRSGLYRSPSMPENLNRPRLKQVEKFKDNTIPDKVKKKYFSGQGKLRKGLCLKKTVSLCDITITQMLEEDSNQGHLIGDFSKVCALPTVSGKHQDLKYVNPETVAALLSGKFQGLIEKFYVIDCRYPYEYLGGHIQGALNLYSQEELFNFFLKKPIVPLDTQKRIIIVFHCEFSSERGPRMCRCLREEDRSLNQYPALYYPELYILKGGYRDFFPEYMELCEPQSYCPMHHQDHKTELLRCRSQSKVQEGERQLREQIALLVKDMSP
Description: as §1

[1] = 3 pt. IC-50 using 1, 7 and 50 μM, read-out: IC50 (3 pt)

SMILES	inhibition at 50 µM (Cdc25A)	IC50 (Cdc25B; [1])	IC50 (Cdc25B; 8 pt. IC-50 using 0.1–10 μM, read-out: IC50 (8 pt))	inhibition at 50 µM (Cdc25B)	inhibition at 50 µM (Cdc25C)
CC(C)=CCC/C(C)=C/Cc1cccc2c(C3=C(O)C(=O)C=C(O)C3=O)c[nH]c12 [6C, 2,5-dihydroxy-3-(7-geranyl-1H-indol-3-yl)-[1,4]-benzoquinone]	99%	0.1 µM	0.5 µM	95%	96%
CC(C)(C)c1[nH]c2ccccc2c1C1=C(O)C(=O)C=C(O)C1=O [2H, 2,5-dihydroxy-3-(2-tert-butyl-1H-indol-3-yl)-[1,4]-benzoquinone]	31%	13.9 µM		11%	0%
O=C1C=C(O)C(=O)C(c2c[nH]c3c(Cl)cccc23)=C1O [5F, 2,5-dihydroxy-3-(7-chloro-1H-indol-3-yl)-[1,4]-benzoquinone]	92%	38 µM		23%	54%
